Here are results for eight compounds from US20230340018A1, “MPRO CYSTEINE PROTEASE INHIBITORS” (ANIXA BIOSCIENCES, INC., priority 2020, published 2023).

Bounds are passed on as bounds.

A short description of series [1]: in vitro. The settings on record: human.
The target of series [2] is SARS-CoV-2 main protease Mpro (Severe acute respiratory syndrome coronavirus 2, UniProt P0DTD1). Nature of the series: FRET-based Mpro enzyme activity assay. It is filed as biochemical. The note with it: recombinant Mpro, 30 min pre-incubation, 0 - 200 µM; read-out: Mpro enzyme inhibition IC50.

For orientation: IC50 means the concentration that inhibits the measured activity by half. `CC(C)C[C@H](NC(=O)c1nc2ccccc2[nH]1)C(=O)N[C@@H](Cc1ccc[nH]c1=O)C(=O)C(=O)NCc1ccccc1` [Compound 23, N-((S)-1-(((S)-4-(benzylamino)-3,4-dioxo-1-(2-oxo-1,2-dihydropyridin-3-yl)butan-2-yl)amino)-4-methyl-1-oxopentan-2-yl)-1H-benzo[d]imidazole-2-carboxamide]: the CC50 at 72 h in series [1] is greater than 100 µM. For the same compound, the IC50 in series [2] is no more than 2 µM.
In the same order, the values of `COc1cccc2[nH]c(C(=O)N[C@@H](CC3CC3)C(=O)N[C@@H](CN3CCNC3=O)C(=O)C(=O)NCC3CC3)cc12` [Compound 12, N-((S)-3-Cyclopropyl-1-(((S)-4-((cyclopropylmethyl)amino)-3,4-dioxo-1-(2-oxoimidazolidin-1-yl)butan-2-yl)amino)-1-oxopropan-2-yl)-4-methoxy-1H-indole-2-carboxamide] are greater than 100 µM and no more than 2 µM.
`CC(C)C[C@H](NC(=O)c1cc2ccccc2[nH]1)C(=O)N[C@@H](CN1CCNC1=O)C(O)C(=O)NCC1CC1` (stereo partly drawn) [Compound 26, N-((2S)-1-(((2S)-4-((cyclopropylmethyl)amino)-3-hydroxy-4-oxo-1-(2-oxoimidazolidin-1-yl)butan-2-yl)amino)-4-methyl-1-oxopentan-2-yl)-1H-indole-2-carboxamide] registered a CC50 at 72 h in series [1] greater than 100 µM. For the same compound, the IC50 in series [2] is no more than 2 µM.
The corresponding values for `COc1cccc2[nH]c(C(=O)N[C@@H](CC(C)C)C(=O)N[C@@H](CN3CCNC3=O)C(=O)C(=O)NCC3CC3)cc12` [Compound 10, N-((S)-1-(((S)-4-((Cyclopropylmethyl)Amino)-3,4-Dioxo-1-(2-Oxoimidazolidin-1-yl)Butan-2-yl)Amino)-4-Methyl-1-Oxopentan-2-yl)-4-Methoxy-1H-Indole-2-Carboxamide] are greater than 100 µM and no more than 2 µM.
For the compound `COc1cccc2[nH]c(C(=O)N[C@H](C(=O)N[C@@H](CN3CCNC3=O)C(=O)C(=O)Nc3ccccc3)C3CCCCC3)cc12` [Compound 25, N-((S)-1-cyclohexyl-2-(((S)-3,4-dioxo-1-(2-oxoimidazolidin-1-yl)-4-(phenylamino)butan-2-yl)amino)-2-oxoethyl)-4-methoxy-1H-indole-2-carboxamide], the CC50 at 72 h in series [1] was greater than 100 µM. Further, the IC50 in series [2] was no more than 2 µM.
The corresponding values for `CC(C)C[C@H](NC(=O)c1cc2ccccc2[nH]1)C(=O)N[C@@H](Cc1ccc[nH]c1=O)C(=O)C(=O)NCc1ccccc1` [Compound 22, N-((S)-1-(((S)-4-(Benzylamino)-3,4-Dioxo-1-(2-Oxo-1,2-Dihydropyridin-3-yl)Butan-2-yl)Amino)-4-Methyl-1-Oxopentan-2-yl)-1H-Indole-2-Carboxamide] are greater than 100 µM and no more than 2 µM.
In series [1], `CC(C)C[C@H](NC(=O)OC(C)(C)C)C(=O)N[C@@H](Cc1ccc[nH]c1=O)C(=O)C(=O)NCc1ccccc1` [Compound 27, tert-butyl ((S)-1-(((S)-4-(benzylamino)-3,4-dioxo-1-(2-oxo-1,2-dihydropyridin-3-yl)butan-2-yl)amino)-4-methyl-1-oxopentan-2-yl)carbamate] returned a CC50 at 72 h greater than 100 µM. In addition, the half-inhibitory concentration (IC50) in series [2] was 2 to 20 µM.
`CC(C)C[C@H](NC(=O)c1cc2ccccc2[nH]1)C(=O)N[C@@H](CN1CCNC1=O)C(=O)C(=O)NCC1CC1` [Compound 24, N-((S)-1-(((S)-4-((cyclopropylmethyl)amino)-3,4-dioxo-1-(2-oxoimidazolidin-1-yl)butan-2-yl)amino)-4-methyl-1-oxopentan-2-yl)-1H-indole-2-carboxamide] registered a CC50 at 72 h in series [1] greater than 100 µM. The IC50 in series [2] is 2 to 20 µM.
